Target: T1, glucan synthase (GS) (Candida albicans, UniProt O13428)
T1 construct: Extraction of GS activity from membranes was performed at a protein concentration of 5 mg/mL in extraction buffer; endogenous in cells; host or cells: Candida albicans MY1055 (membrane fraction, detergent extract, product entrapment)
Assay: Glucan synthase inhibition (polymerization assay, 96-well, 3H-UDPG incorporation)
Format: biochemical
Conditions: glucan synthase prepared from Candida albicans MY1055; 60 min incubation at 22°C; read-out: Candida Albicans GS IC50 (ng/mL) (converted)
Experimental: The in vitro evaluation of glucan synthase inhibitory activity of compounds was measured in a polymerization assay in 96-well format. Each well contained 100 µL of ^3H-UDPG at 0.5 mM (6000 to 8000 dpm/nmol), 50 mM HEPES pH 7.5 (Sigma), 10% w/v glycerol (Sigma), 1.5 mg/mL bovine serum albumin (Sigma A 9647. Lot 44H0190), 25 mM KF (Fisher), 1 mM EDTA (Gibco ULTRAPURE), 25 µM GTP-γ-S, enzyme sufficient to give 3 to 6 nmoles incorporation during the 60 min incubation at 22°C, and test compound added from wells in 3-fold serial dilutions in 100% DMSO (1 µL/well). The reaction was stopped by the addition of 100 µL of 20% trichloroacetic acid. Plates were chilled for a minimum of 10 min, and precipitated glucan collected by filtration on GF/C plates (Packard UNIFILTER®-96), washed with 5 cycles of water (about 1 mL/well each cycle) using a Packard FILTERMATE HARVESTER. 40 µL/well scintillation fluid (Packard ULTIMA GOLD TM-XR) was added and the sealed plates counted in a WALLAC BETA counter in top-counting mode at an efficiency of approximately 40%.
Stock solutions were stored at 10 mg/mL in DMSO at -20°C. For each new enzyme preparation, the initial titration performed started at 1 mg/mL, which was prepared by making a 10-fold dilution in DMSO (5 µL to 50 µL). 40 µL of this stock was placed in column 12 of a round-bottomed 96-well microtiter plate. 40 µL DMSO was added to columns 1 to 11 in the same row and ten 3-fold serial dilutions performed, by transferring 20 µL from column 12 to column 11 etc., with 4 mixings before each transfer. No test compound was transferred to from column 2 to column 1. Duplicate aliquots of 1 µL of all 12 dilutions were then transferred to the side walls of a 96-well Bioblock 1.1 mL plate (Fisher brand) to create two rows.
Graphs of the primary data were created in PRISM software (the average of two determinations) using PRISM's curve fitting program (sigmoidal dose response non-linear regression). The amount of compound required to inhibit glucan synthase activity by 50% in this assay (IC50 - ng/mL) was calculated.
Routine analysis was performed with glucan synthase (GS) prepared from Candida albicans MY1055 by the following procedure: MY1055 was grown in 10 liters YPD medium (10 g yeast extract, 20 g tryptone, 20 g glucose per liter) with vigorous shaking at 30°C, to early stationary phase. Cells were harvested by centrifugation, the pellet was washed and frozen at -70°C until breakage. Thawed pellets were shaken with an equal volume of breakage buffer (50 mM HEPES pH 7.4, 10% glycerol, 1 mM EDTA, 1 mM PMSF, 1mM DTT) and 4 times their weight of 0.5 mm acid washed glass beads for 2 hours at 4°C. Extent of breakage was assessed visually at 40x magnification. After low speed centrifugation to remove cell debris, the supernatant was centrifuged at 100,000 x g for 60 min. to separate membranes plus ribosomes from cytoplasmic components. Membranes were further washed two additional times with breakage buffer using the same centrifugation conditions and finally suspended in breakage buffer at 25 to 30 mg/mL protein (Biorad) for storage at -70°C. Extraction of GS activity from membranes was performed at a protein concentration of 5 mg/mL in extraction buffer (50mM NaPO4 pH 7.5, 0.1 M KCl, 0.1M Na citrate, 20% glycerol, 5 µM GTP-γ-S, 1mM DTT, 1 mM PMSF, 3 µg/mL pepstatin) plus 0.25% W1 by gentle mixing at 4°C for 60 min, followed by centrifugation at 100,000 x g for 60 min. After centrifugation, clear supernatant was removed from a pellet consisting of a hard layer usually with small amounts of gelatinous unextracted membranes above it.
Trapping was initiated immediately by 5-fold dilution in trapping buffer (50 mM HEPES pH 7.5, 10 mM KF, 1 mM EDTA, 2 mg/mL BSA) plus 2.5 mM UDPG and 10µM GTP-γ-S. After incubation at 25°C for 60 to 90 minutes, glucan was harvested by low speed centrifugation (3,000 x g, 10 min). […]

T1 sequence (O13428 1-1897): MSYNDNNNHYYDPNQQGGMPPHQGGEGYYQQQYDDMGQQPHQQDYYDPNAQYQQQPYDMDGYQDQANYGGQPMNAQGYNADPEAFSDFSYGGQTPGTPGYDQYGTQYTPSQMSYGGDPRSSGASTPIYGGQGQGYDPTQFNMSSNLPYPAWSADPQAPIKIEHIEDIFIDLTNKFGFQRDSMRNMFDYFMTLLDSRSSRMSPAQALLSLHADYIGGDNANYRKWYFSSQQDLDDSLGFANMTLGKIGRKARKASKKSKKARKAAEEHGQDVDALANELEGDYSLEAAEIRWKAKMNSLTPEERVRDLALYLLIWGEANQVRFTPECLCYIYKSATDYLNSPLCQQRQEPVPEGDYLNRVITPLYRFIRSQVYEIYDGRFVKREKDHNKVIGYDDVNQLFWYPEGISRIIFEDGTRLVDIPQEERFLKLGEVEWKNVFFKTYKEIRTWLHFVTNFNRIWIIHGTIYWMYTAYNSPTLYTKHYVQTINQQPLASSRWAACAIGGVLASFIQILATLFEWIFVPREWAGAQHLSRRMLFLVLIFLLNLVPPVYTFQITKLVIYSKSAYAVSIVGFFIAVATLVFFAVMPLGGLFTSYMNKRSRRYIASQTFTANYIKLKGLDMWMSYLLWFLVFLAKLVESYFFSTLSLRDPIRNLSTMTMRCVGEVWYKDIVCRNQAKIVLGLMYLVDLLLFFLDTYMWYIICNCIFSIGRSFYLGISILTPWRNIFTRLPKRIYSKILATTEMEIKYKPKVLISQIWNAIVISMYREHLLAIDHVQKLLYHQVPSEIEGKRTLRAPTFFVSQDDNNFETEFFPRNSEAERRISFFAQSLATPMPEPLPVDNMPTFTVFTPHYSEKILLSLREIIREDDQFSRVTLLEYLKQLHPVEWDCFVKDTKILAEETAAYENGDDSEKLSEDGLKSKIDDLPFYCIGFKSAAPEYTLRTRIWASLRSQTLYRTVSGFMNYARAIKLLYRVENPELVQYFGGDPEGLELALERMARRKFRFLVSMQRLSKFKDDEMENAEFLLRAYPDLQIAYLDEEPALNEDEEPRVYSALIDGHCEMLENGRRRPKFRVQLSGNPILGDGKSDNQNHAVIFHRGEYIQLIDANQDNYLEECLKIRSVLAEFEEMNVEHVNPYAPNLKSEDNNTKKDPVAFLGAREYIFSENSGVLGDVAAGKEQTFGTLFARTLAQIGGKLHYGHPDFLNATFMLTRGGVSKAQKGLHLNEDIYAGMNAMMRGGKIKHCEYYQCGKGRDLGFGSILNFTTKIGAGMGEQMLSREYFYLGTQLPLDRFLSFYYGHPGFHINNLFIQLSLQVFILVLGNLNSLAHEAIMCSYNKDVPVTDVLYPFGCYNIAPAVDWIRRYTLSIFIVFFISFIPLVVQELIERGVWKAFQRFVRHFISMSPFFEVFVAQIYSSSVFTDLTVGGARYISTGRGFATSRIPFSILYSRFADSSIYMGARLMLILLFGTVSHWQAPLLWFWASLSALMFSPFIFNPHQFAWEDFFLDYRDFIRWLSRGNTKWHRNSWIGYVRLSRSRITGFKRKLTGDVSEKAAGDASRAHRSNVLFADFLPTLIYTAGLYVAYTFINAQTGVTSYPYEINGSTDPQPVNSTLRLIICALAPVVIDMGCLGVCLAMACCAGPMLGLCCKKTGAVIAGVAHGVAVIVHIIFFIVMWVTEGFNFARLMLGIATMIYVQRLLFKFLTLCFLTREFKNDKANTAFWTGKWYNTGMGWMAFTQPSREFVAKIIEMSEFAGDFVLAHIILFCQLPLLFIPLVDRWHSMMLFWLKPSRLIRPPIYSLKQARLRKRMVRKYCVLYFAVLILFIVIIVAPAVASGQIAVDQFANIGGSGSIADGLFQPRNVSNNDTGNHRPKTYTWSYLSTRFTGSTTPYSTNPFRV
T1 sequence (O42825 1-195 partner limits assumed): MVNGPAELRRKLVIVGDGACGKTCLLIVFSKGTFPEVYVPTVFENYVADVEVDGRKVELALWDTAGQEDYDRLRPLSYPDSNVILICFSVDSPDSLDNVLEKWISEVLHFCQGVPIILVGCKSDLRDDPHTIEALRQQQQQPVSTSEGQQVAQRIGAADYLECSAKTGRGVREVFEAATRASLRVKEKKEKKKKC

Point of comparison: `CC(C)[C@@H](C)[C@@]1(C)CC[C@]2(C)[C@H]3CC[C@@H]4[C@@]5(COC[C@@]4(C)[C@@H](OC[C@](C)(N)C(C)C)[C@H](n4ncnc4-c4ccncn4)C5)C3=CC[C@@]2(C)[C@@H]1C(=O)O` [Example 190, (1S,4aR,6aS,7R,8R,10aR,10bR,12aR,14R,15R)-15-[[(2R)-2-amino-2,3-dimethylbutyl]oxy]-8-[(1R)-1,2-dimethylpropyl]-14-[5-(4-pyrimidinyl)-1H-1,2,4-triazol-1-yl]-1,6,6a,7,8,9,10,10a,10b,11,12,12a-dodecahydro-1,6a,8,10a-tetramethyl-4H-1,4a-propano-2H-phenanthro[1,2-c]pyran-7-carboxylic acid], IC50 4.18 nM. Against it:
- CC(C)[C@@H](C)[C@@]1(C)CC[C@]2(C)[C@H]3CC[C@@H]4[C@@]5(COC[C@@]4(C)[C@@H](OC[C@](C)(N)C(C)C)[C@H](n4ncnc4-c4cccnc4)C5)C3=CC[C@@]2(C)[C@@H]1C(=O)O [Example 182, (1S,4aR,6aS,7R,8R,10aR,10bR,12aR,14R,15R)-15-[[(2R)-2-amino-2,3-dimethylbutyl]oxy]-8-[(1R)-1,2-dimethylpropyl]-14-[5-(3-pyridinyl)-1H-1,2,4-triazol-1-yl]-1,6,6a,7,8,9,10,10a,10b,11,12,12a-dodecahydro-1,6a,8,10a-tetramethyl-4H-1,4a-propano-2H-phenanthro[1,2-c]pyran-7-carboxylic acid] — within 1.5-fold, 5.59 nM
- CNC1(CO[C@H]2[C@H](n3ncnc3-c3ccncc3)C[C@@]34COC[C@]2(C)[C@@H]3CC[C@H]2C4=CC[C@@]3(C)[C@H](C(=O)O)[C@@](C)([C@H](C)C(C)C)CC[C@]23C)CCOCC1 [Example 181, (1S,4aR,6aS,7R,8R,10aR,10bR,12aR,14R,15R)-8-[(1R)-1,2-dimethylpropyl]-14-[5-(4-pyridinyl)-1H-1,2,4-triazol-1-yl]-15-[[tetrahydro-4-(methylamino)-2H-pyran-4-yl]methoxy]-1,6,6a,7,8,9,10,10a,10b,11,12,12a-dodecahydro-1,6a,8,10a-tetramethyl-4H-1,4a-propano-2H-phenanthro[1,2-c]pyran-7-carboxylic acid] — 2.6-fold higher, 10.8 nM
- CC(C)[C@@H](C)[C@@]1(C)CC[C@]2(C)[C@H]3CC[C@@H]4[C@@]5(COC[C@@]4(C)[C@@H](OC[C@](C)(N)C(C)(C)C)[C@H](n4ncnc4-c4ccnnc4)C5)C3=CC[C@@]2(C)[C@@H]1C(=O)O [Example 202, (1S,4aR,6aS,7R,8R,10aR,10bR,12aR,14R,15R)-15-[[(2R)-2-amino-2,3,3-trimethylbutyl]oxy]-8-[(1R)-1,2-dimethylpropyl]-14-[5-(4-pyridazinyl)-1H-1,2,4-triazol-1-yl]-1,6,6a,7,8,9,10,10a,10b,11,12,12a-dodecahydro-1,6a,8,10a-tetramethyl-4H-1,4a-propano-2H-phenanthro[1,2-c]pyran-7-carboxylic acid] — 15-fold lower, 0.274 nM
- CC(C)[C@@H](C)[C@@]1(C)CC[C@]2(C)[C@H]3CC[C@@H]4[C@@]5(COC[C@@]4(C)[C@@H](OC[C@](C)(N)C(C)(C)C)[C@H](n4ncnc4-c4ccncc4F)C5)C3=CC[C@@]2(C)[C@@H]1C(=O)O [Example 208, (1S,4aR,6aS,7R,8R,10aR,10bR,12aR,14R,15R)-15-[[(2R)-2-amino-2,3,3-trimethylbutyl]oxy]-8-[(1R)-1,2-dimethylpropyl]-14-[5-(3-fluoro-4-pyridinyl)-1H-1,2,4-triazol-1-yl]-1,6,6a,7,8,9,10,10a,10b,11,12,12a-dodecahydro-1,6a,8,10a-tetramethyl-4H-1,4a-propano-2H-phenanthro[1,2-c]pyran-7-carboxylic acid] — 4.5-fold lower, 0.936 nM
- CC(C)[C@@H](C)[C@@]1(C)CC[C@]2(C)[C@H]3CC[C@@H]4[C@@]5(COC[C@@]4(C)[C@@H](OCC4(N)CCOCC4)[C@H](n4ncnc4-c4ccncn4)C5)C3=CC[C@@]2(C)[C@@H]1C(=O)O [Example 256, (1S,4aR,6aS,7R,8R,10aR,10bR,12aR,14R,15R)-15-[(4-aminotetrahydro-2H-pyran-4-yl)methoxy]-8-[(1R)-1,2-dimethylpropyl]-14-[5-(4-pyrimidinyl)-1H-1,2,4-triazol-1-yl]-1,6,6a,7,8,9,10,10a,10b,11,12,12a-dodecahydro-1,6a,8,10a-tetramethyl-4H-1,4a-propano-2H-phenanthro[1,2-c]pyran-7-carboxylic acid] — 1.6-fold higher, 6.84 nM
- CCCN[C@@](C)(CO[C@H]1[C@H](n2ncnc2C(=O)NC)C[C@@]23COC[C@]1(C)[C@@H]2CC[C@H]1C3=CC[C@@]2(C)[C@H](C(=O)O)[C@@](C)([C@H](C)C(C)C)CC[C@]12C)C(C)C [Example 53, (1S,4aR,6aS,7R,8R,10aR,10bR,12aR,14R,15R)-8-[(1R)-1,2-dimethylpropyl]-15-[[(2R)-2,3-dimethyl-2-(propylamino)butyl]oxy]-14-[5-[(methylamino)carbonyl]-1H-1,2,4-triazol-1-yl]-1,6,6a,7,8,9,10,10a,10b,11,12,12a-dodecahydro-1,6a,8,10a-tetramethyl-4H-1,4a-propano-2H-phenanthro[1,2-c]pyran-7-carboxylic acid] — 10-fold higher, 42 nM
- CNC(=O)c1ncnn1[C@@H]1C[C@@]23COC[C@](C)([C@@H]2CC[C@H]2C3=CC(=O)[C@@]3(C)[C@H](C(=O)O)[C@@](C)([C@H](C)C(C)C)CC[C@]23C)[C@H]1OC[C@](C)(NC)C(C)C [Example 40, (1S,4aR,6aS,7R,8R,10aR,10bR,12aR,14R,15R)-15-[[(2R)-2,3-dimethyl-2-(methylamino)butyl]oxy]-8-[(1R)-1,2-dimethylpropyl]-14-[5-[(methylamino)carbonyl]-1H-1,2,4-triazol-1-yl]-1,6,6a,7,8,9,10,10a,10b,11,12,12a-dodecahydro-1,6a,8,10a-tetramethyl-6-oxo-4H-1,4a-propano-2H-phenanthro[1,2-c]pyran-7-carboxylic acid] — 6-fold higher, 24.9 nM
- CC(C)[C@@H](C)[C@@]1(C)CC[C@]2(C)[C@H]3CC[C@@H]4[C@@]5(COC[C@@]4(C)[C@@H](OC[C@](C)(N)C(C)C)[C@H](n4ncnc4C(=O)N(C)C)C5)C3=CC[C@@]2(C)[C@@H]1C(=O)O [Example 50, (1S,4aR,6aS,7R,8R,10aR,10bR,12aR,14R,15R)-15-[[(2R)-2-amino-2,3-dimethylbutyl]oxy]-14-[5-[(dimethylamino)carbonyl]-1H-1,2,4-triazol-1-yl]-8-[(1R)-1,2-dimethylpropyl]-1,6,6a,7,8,9,10,10a,10b,11,12,12a-dodecahydro-1,6a,8,10a-tetramethyl-4H-1,4a-propano-2H-phenanthro[1,2-c]pyran-7-carboxylic acid] — 3-fold higher, 12.7 nM
- CC(C)[C@@H](C)[C@@]1(C)CC[C@]2(C)[C@H]3CC[C@@H]4[C@@]5(COC[C@@]4(C)[C@@H](OC[C@](C)(N)C(C)(C)C)[C@H](n4ncnc4-c4ccc[n+]([O-])c4)C5)C3=CC[C@@]2(C)[C@@H]1C(=O)O [Example 261, (1S,4aR,6aS,7R,8R,10aR,10bR,12aR,14R,15R)-15-[[(2R)-2-amino-2,3,3-trimethylbutyl]oxy]-8-[(1R)-1,2-dimethylpropyl]-14-[5-(1-oxido-3-pyridinyl)-1H-1,2,4-triazol-1-yl]-1,6,6a,7,8,9,10,10a,10b,11,12,12a-dodecahydro-1,6a,8,10a-tetramethyl-4H-1,4a-propano-2H-phenanthro[1,2-c]pyran-7-carboxylic acid] — 1.6-fold lower, 2.68 nM

Reference: patent EP2326172B1, “ANTIFUNGAL AGENTS” (Scynexis, Inc., priority 2008, dated 2010)
